What was measured:
[1] = Pharmacokinetic study, plasma level 2 hours after oral dosing in rats; type: in vivo
Description: Pharmacokinetic studies were conducted to determine absorption and distribution profiles of the disclosed compounds which were orally administered to rats.
Compounds were formulated in a 1% DMA/99% Vitamin E TPGS vehicle. Prepared compounds were dosed via oral gavage (PO). Following the appropriate pretreatment time of 2 hours, rats were anesthetized with isoflurane gas. Blood was collected into tubes containing EDTA via retro-orbital eye bleed. Whole blood was spun in a micro-centrifuge at approximately 13,000 rpm for 5 minutes at room temperature. Separated plasma was subsequently aliquoted into eppendorf tubes. Samples were stored at −80° C. until prepped for analysis.
Plasma samples were thawed and the required amount of plasma for standards, blanks and dilutions were made. The dilutions were prepared before plating. Preparation of crash solution included cold acetonitrile+0.1% formic acid and 25 ng/mL of a FAAH inhibitor used as internal standard. solvent standards of the FAAH inhibitor being studied were preparation at 10, 30, 100, 300, 1000, 3000, 10000, 30000, 100000, and 300000 ng/mL in DMSO. Then a plasma standard curve was generated from the solvent standards (final concentrations of standards in plasma were: 0.1, 0.3, 1, 3, 10, 30, 100, 300, 1000, 3000 ng/mL). 50 μL of each plasma sample/dilution, standard, or blank was transferred into 96-well plates. To each well, 200 μL of cold crash solution was added. The plate was covered and gently vortexed. The plate was centrifuged at 3500 rpm, 4° C. for 10 min. 200 μL of each supernatant was transferred into new plates. The plates were dried under nitrogen in a TurboVap at 55° C. The sample in each well was re-suspended with 100 μL of 30% acetonitrile, covered and vortexed gently. The well solutions were analyzed by the LC/MS/MS conditions and specifications below.
HPLC column was a Clipeus C8, 2.1×30 mm, 5 μm, with Basic 8 guard column using 20 μL injections. Mobile phase used was mobile phase A: 0.1% Formic Acid in water and mobile phase B: 0.1% Formic Acid in 85:10:5 ACN:IPA:H2O. The flow rate for the run was 0.5 mL/min and the gradient for the 4 minute total run time was: 0.0 minutes

[2] = biological target: T1, human FAAH-1 (Homo sapiens, UniProt O00519); assay: Whole cell anandamide hydrolysis assay (HeLa clone 5c5 transfected with human FAAH-1); type: cell-based; conditions: HeLa clone 5c5 expressing human FAAH-1; read-out: human FAAH whole cell IC50
T1 sequence (O00519 1-579): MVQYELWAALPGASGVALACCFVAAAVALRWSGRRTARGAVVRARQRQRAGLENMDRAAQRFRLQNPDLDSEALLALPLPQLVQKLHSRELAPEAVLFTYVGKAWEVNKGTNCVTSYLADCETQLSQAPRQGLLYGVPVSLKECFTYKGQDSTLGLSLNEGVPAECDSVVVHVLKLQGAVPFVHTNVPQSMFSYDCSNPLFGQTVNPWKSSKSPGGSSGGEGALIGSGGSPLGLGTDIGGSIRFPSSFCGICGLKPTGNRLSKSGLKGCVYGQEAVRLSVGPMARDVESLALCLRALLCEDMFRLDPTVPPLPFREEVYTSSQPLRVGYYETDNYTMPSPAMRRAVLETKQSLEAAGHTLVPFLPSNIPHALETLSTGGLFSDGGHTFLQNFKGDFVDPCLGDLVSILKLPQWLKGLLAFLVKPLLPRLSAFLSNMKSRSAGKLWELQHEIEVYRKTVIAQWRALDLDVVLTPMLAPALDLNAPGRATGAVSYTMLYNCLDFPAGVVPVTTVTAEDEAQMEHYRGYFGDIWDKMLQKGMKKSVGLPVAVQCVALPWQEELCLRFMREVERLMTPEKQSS
Procedure, shortened: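 Stable HeLa clone 5c5 expressing human FAAH-1, pre-incubated with compound 10 min at 37° C in DMEM/F12 with 15 mM HEPES pH 7.4 and 0.1% fatty-acid-free BSA. [3H]-anandamide (5 μM stock) added for 15 min; [3H]-ethanolamine separated on charcoal and counted. IC50 from curves constrained to 100% and 0%.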

Row | SMILES | 2 hr plasma level-ng/mL (rat, 10 mg/kg PO, 2 hr) [1] | IC50 [2] [nM]
1 | COc1ccc(Cn2c(C)c(C(=O)C(=O)Nc3ccnc(OC)c3)c3cc(OC)ccc32)nc1 [Compound 43, 2-(5-methoxy-1-((5-methoxypyridin-2-yl)methyl)-2-methyl-1H-indol-3-yl)-N-(2-methoxypyridin-4-yl)-2-oxoacetamide] | D (D = greater than 1000 nM) | < 100
2 | COc1cc(NC(=O)C(=O)c2c(C)n(Cc3ccc(Cl)cc3)c3cc(OC)c(OC)cc23)ccn1 [Compound 44, 2-(1-(4-chlorobenzyl)-5,6-dimethoxy-2-methyl-1H-indol-3-yl)-N-(2-methoxypyridin-4-yl)-2-oxoacetamide] | C (C = between 100 nM and 1000 nM) | < 100
3 | COc1cc(NC(=O)C(=O)c2c(C)n(Cc3ccc(Cl)cc3)c3cccc(OC)c23)ccn1 [Compound 45, 2-(1-(4-chlorobenzyl)-4-methoxy-2-methyl-1H-indol-3-yl)-N-(2-methoxypyridin-4-yl)-2-oxoacetamide] | C (C = between 100 nM and 1000 nM) | < 100
4 | COc1ccc2c(c1)c(C(=O)C(=O)Nc1ccnc(OC)n1)c(C)n2Cc1ccc(Cl)cc1 [Compound 46, 2-(1-(4-chlorobenzyl)-5-methoxy-2-methyl-1H-indol-3-yl)-N-(2-methoxypyrimidin-4-yl)-2-oxoacetamide] | C (C = between 100 nM and 1000 nM) | < 100
5 | COc1ccc2c(c1)c(C(=O)C(=O)Nc1cc(Cl)nc(OC)c1)c(C)n2Cc1ccc(Cl)cc1 [Compound 47, N-(2-chloro-6-methoxypyridin-4-yl)-2-(1-(4-chlorobenzyl)-5-methoxy-2-methyl-1H-indol-3-yl)-2-oxoacetamide] | C (C = between 100 nM and 1000 nM) | < 100
6 | COc1ccc2c(C(=O)C(=O)Nc3ccnc(OC)c3)c(C)n(Cc3ccc(Cl)cc3)c2c1 [Compound 48, 2-(1-(4-chlorobenzyl)-6-methoxy-2-methyl-1H-indol-3-yl)-N-(2-methoxypyridin-4-yl)-2-oxoacetamide] | C (C = between 100 nM and 1000 nM) | < 100
7 | COc1ccc2c(c1)c(C(=O)C(=O)Nc1cc(OC)ncc1F)c(C)n2Cc1ccc(Cl)cc1 [Compound 54, 2-(1-(4-chlorobenzyl)-5-methoxy-2-methyl-1H-indol-3-yl)-N-(5-fluoro-2-methoxypyridin-4-yl)-2-oxoacetamide] | A (A = Less than 10 nM) | < 100
8 | COc1cc(NC(=O)C(=O)c2c(C)n(Cc3ccc(Cl)cc3)c3cc(Cl)c(OC)cc23)ccn1 [Compound 55, 2-(6-chloro-1-(4-chlorobenzyl)-5-methoxy-2-methyl-1H-indol-3-yl)-N-(2-methoxypyridin-4-yl)-2-oxoacetamide] | C (C = between 100 nM and 1000 nM) | < 100
9 | COc1cc(NC(=O)C(=O)c2c(C)n(Cc3ccc(Cl)cc3)c3ccc(OC)c(F)c23)ccn1 [Compound 59, 2-(1-(4-chlorobenzyl)-4-fluoro-5-methoxy-2-methyl-1H-indol-3-yl)-N-(2-methoxypyridin-4-yl)-2-oxoacetamide] | C (C = between 100 nM and 1000 nM) | < 100
10 | COc1cc(NC(=O)C(=O)c2c(C)n(Cc3ccc(Cl)cn3)c3cc(Cl)c(OC)cc23)ccn1 [Compound 60, 2-(6-chloro-1-((5-chloropyridin-2-yl)methyl)-5-methoxy-2-methyl-1H-indol-3-yl)-N-(2-methoxypyridin-4-yl)-2-oxoacetamide] | D (D = greater than 1000 nM) | < 100
11 | COc1cc(NC(=O)C(=O)c2c(C)n(Cc3ccc(Cl)cn3)c3ccc(C)cc23)ccn1 [Compound 61, 2-(1-((5-chloropyridin-2-yl)methyl)-2,5-dimethyl-1H-indol-3-yl)-N-(2-methoxypyridin-4-yl)-2-oxoacetamide] | D (D = greater than 1000 nM) | < 100
12 | COc1cc(NC(=O)C(=O)c2c(C)n(Cc3ccc(Cl)cn3)c3ccc(Cl)cc23)ccn1 [Compound 63, 2-(5-chloro-1-((5-chloropyridin-2-yl)methyl)-2-methyl-1H-indol-3-yl)-N-(2-methoxypyridin-4-yl)-2-oxoacetamide] | C (C = between 100 nM and 1000 nM) | < 100
13 | COc1cc(NC(=O)C(=O)c2c(C)n(Cc3ccc(Cl)cn3)c3cc(F)c(OC)cc23)ccn1 [Compound 64, 2-(1-((5-chloropyridin-2-yl)methyl)-6-fluoro-5-methoxy-2-methyl-1H-indol-3-yl)-N-(2-methoxypyridin-4-yl)-2-oxoacetamide] | C (C = between 100 nM and 1000 nM) | < 100
14 | COc1cc(NC(=O)C(=O)c2c(C)n(Cc3ccc(Cl)cn3)c3ccc(N(C)C)cc23)ccn1 [Compound 66, 2-(1-((5-chloropyridin-2-yl)methyl)-5-(dimethylamino)-2-methyl-1H-indol-3-yl)-N-(2-methoxypyridin-4-yl)-2-oxoacetamide] | D (D = greater than 1000 nM) | < 100
15 | COc1cc(NC(=O)C(=O)c2c(C)n(Cc3ccc(Cl)cn3)c3cc(OC)c(Cl)cc23)ccn1 [Compound 67, 2-(5-chloro-1-((5-chloropyridin-2-yl)methyl)-6-methoxy-2-methyl-1H-indol-3-yl)-N-(2-methoxypyridin-4-yl)-2-oxoacetamide] | D (D = greater than 1000 nM) | < 100
16 | COc1cc(NC(=O)C(=O)c2c(C)n(Cc3ccc(Cl)cn3)c3ccccc23)ccn1 [Compound 68, 2-(1-((5-chloropyridin-2-yl)methyl)-2-methyl-1H-indol-3-yl)-N-(2-methoxypyridin-4-yl)-2-oxoacetamide] | D (D = greater than 1000 nM) | < 100
17 | COc1ccc(Cn2c(C)c(C(=O)C(=O)Nc3ccnc(OC)c3)c3cc(C)ccc32)nc1 [Compound 69, 2-(1-((5-methoxypyridin-2-yl)methyl)-2,5-dimethyl-1H-indol-3-yl)-N-(2-methoxypyridin-4-yl)-2-oxoacetamide] | C (C = between 100 nM and 1000 nM) | < 100
18 | COc1cc(NC(=O)C(=O)c2c(C)n(Cc3ncc(Cl)cc3Cl)c3cc(Cl)c(OC)cc23)ccn1 [Compound 70, 2-(6-chloro-1-((3,5-dichloropyridin-2-yl)methyl)-5-methoxy-2-methyl-1H-indol-3-yl)-N-(2-methoxypyridin-4-yl)-2-oxoacetamide] | C (C = between 100 nM and 1000 nM) | < 100
19 | Cc1c(C(=O)C(=O)Nc2cccc(Cl)c2)c2cc(O)ccc2n1Cc1ccc(Cl)cc1 [Compound 71, 2-(1-(4-chlorobenzyl)-5-hydroxy-2-methyl-1H-indol-3-yl)-N-(3-chlorophenyl)-2-oxoacetamide] | A (A = Less than 10 nM) | < 100
20 | COc1cc(NC(=O)C(=O)c2c(C)n(Cc3ccc(Cl)cc3)c3cc(F)c(OC)cc23)ccn1 [Compound 72, 2-(1-(4-chlorobenzyl)-6-fluoro-5-methoxy-2-methyl-1H-indol-3-yl)-N-(2-methoxypyridin-4-yl)-2-oxoacetamide] | C (C = between 100 nM and 1000 nM) | < 100

From patent US20150175599A1, “FAAH Inhibitors” (Ironwood Pharmaceuticals, Inc., priority 2010, published 2015)
